Measurements taken from patent US11033569B2, “Compounds,Compositions, and methods for the treatment of disease” (Sperovie Biosciences, Inc., priority 2016, dated 2021).
“Also recorded” adds a separate entry of the source.

Assays:
[1] = Oral maximum tolerated dose study in BALB/c mice; assay type: in vivo
Description: In order to investigate the maximum tolerated dosage of orally administered compounds, 15 female BALB/c mice between 7-10 weeks old were split into three treatment groups. Each group was administered either Cmd 1 or vehicle orally, according to the schedule outlined in Table 5 below. Cmd 1 was provided at 10 mL/kg (0.200 mL/20 g mouse).

[2] = system: 4T1.luc2 orthotopic murine breast carcinoma; assay: 4T1.luc2 orthotopic murine breast carcinoma model; assay type: in vivo, mice
Description: The efficacy of intraperitoneal administration of Cmd 1 was investigated in the 4T1.luc2 orthotopic murine breast carcinoma model. Thirty female BALB/c mice between 7-10 weeks old were randomized into four treatment groups based on Day 1 body weight, and the treatment was carried out according to the regimen outlined in Table 4 below. Cmd 1 was dissolved in saline and administered at 10 mL/kg (0.200 mL/20 g mouse), with a cell injection volume of 0.05 mL/mouse.
Each animal was monitored individually. The endpoint of the experiment was a tumor volume of […] or 45 days. Animals in Groups 1 and 2 were subjected to whole body bioluminescent imaging starting on Day 5 and once a week thereafter (Days 12, 19, 26, 33, and 41). At the endpoint, blood and tissue (lung, lymph nodes, spleen, and tumor) was analyzed for presence of metastases and biomarker (CD45, CD3, CD4, CD8, CD11b, CD25, Ly-6G, Ly-6C, FoxP3) levels.

[3] = system: CD8+ T cells, CD4+ T cells, and MDSCs; assay: Flow cytometry of immune cells in spleen, lymph nodes and blood; assay type: in vivo; conditions: lymph nodes and blood on day 19, compared with vehicle
[4] = system: A20 lymphoma; assay: Syngeneic A20 lymphoma mouse model; assay type: in vivo; conditions: for tumor growth upon re-challenge with tumor cells: compared with control
[5] = system: THP1 cells; assay: Caspase-Glo 3/7 apoptosis assay in THP1 cells; assay type: cell-based; conditions: THP1, Lipofectamine LTX, 20 h
Description: The Apoptosis in THP1 cells was assessed using Caspase-Glo® 3/7 Assay (Promega). […] The caspase-3 and -7 activity was measured by using a pro-luminescent caspase-3/7 substrate that contains the tetrapeptide sequence DEVD which is cleaved to release amino-luciferin, a substrate of luciferase used in the production of light. After incubation for 20 h, Apoptotic activity was assessed by measuring levels of amino-luciferin. % Apoptosis was calculated from fold-change in luminescence compared to DMSO-treated sample. CC50 values are generated by curve fit in Xlfit.

[6] = system: THP1 cells and PBMCs; assay: Caspase-Glo 3/7 apoptosis assay, THP1 vs. PBMCs; assay type: cell-based; conditions: Lipofectamine LTX, 20 h
Description: The Apoptosis in THP1 cells and PBMCs was assessed using Caspase-Glo® 3/7 Assay (Promega). […] The caspase-3 and -7 activity was measured by using a proluminescent caspase-3/7 substrate that contains the tetrapeptide sequence DEVD which will be cleaved to release aminoluciferin, a substrate of luciferase used in the production of light. After incubation for 20 h, Apoptotic activity was assessed by measure levels of aminoluciferin. % Apoptosis was calculated from fold change in luminescence compared to DMSO treated sample.

[7] = system: THP1 cells and PBMCs; assay: Gene expression of ISGs and PRRs in THP1 and PBMCs (real time PCR); assay type: cell-based; conditions: 5 uM, Lipofectamine LTX, 20 h
Description: (§1) After incubation for 20 h, RNA was extracted and gene expression of different Interferon Stimulated Genes (ISGs) and various Pattern Recognition Receptors (PRRs) was evaluated by real time PCR. Fold Induction was calculated by ΔΔct method.
as §1

[8] = system: tumor cells and THP1 cells; assay: Tumor cell growth, high-content image-based approach
[9] = molecular target: T1, STING (Homo sapiens, UniProt Q86WV6); assay: STING binding / type I IFN signaling (ISRE-luciferase); assay type: cell-based; conditions: similar to 2′,3′-cGAMP
T1 construct: host or cells: SZ14 HEK293 cells stably expressing ISG54 ISRE-luc reporter
Description: SZ14 HEK293 cells stably expressing the ISG54 ISRE-luc reporter gene were treated with compound exemplary compounds Cmd 1, 2′ 3-cGAMP (natural STING ligand), or DMSO in the presence of digitonin for 5-6 hrs. ISRE-luciferase activity was determined and normalized to DMSO treated cells (mean±standard deviation of triplicate wells per stimulant).

[10] = system: mouse macrophages; assay: Type I IFN signaling in mouse macrophages; assay type: cell-based
Description: Activity of secreted luciferase in cell culture supernatant was measured using Invivogen Quanti-luc. Data are shown as fold induction over DMSO treated cells (mean±standard deviation of triplicate wells per stimulant).

[11] = system: THP1 cells; assay: Type III IFN (IL-29) production in THP1 cells (ELISA); assay type: cell-based; conditions: 21 hrs
Description: Level of IL-29 in culture supernatant was determined using ELISA. Results shown are the average±standard deviation of duplicate wells.

[12] = molecular target: STING-HAQ polymorphic variant (Homo sapiens, UniProt Q86WV6, G230A/H232R/R293Q/R71H); assay: Activation of STING-HAQ polymorphic variant; assay type: cell-based; conditions: major STING-HAQ polymorphic variant in humans
[13] = system: STING-R238A and STING-Y167A; assay: STING loss-of-function mutants, STING-dependent IFN response; assay type: cell-based
[14] = system: mouse lymphoma cell line A20; assay: Apoptosis in mouse lymphoma cell line A20; assay type: cell-based; conditions: A20 cells
[15] = system: mouse melanoma cells; assay: Apoptosis of mouse melanoma cells; assay type: cell-based
[16] = molecular target: T1, STING; assay: STING dependence of cell death; assay type: cell-based
[17] = system: A20 mouse B cell lymphoma tumor cells; assay: Apoptosis-related genes and ISGs in A20 mouse B cell lymphoma tumor cells; assay type: cell-based; conditions: compared with 2′3′-cGAMP
[18] = system: IRF-type I and type III IFN response; assay: IRF-type I and type III IFN response; assay type: cell-based
[19] = molecular target: T2, STING (Homo sapiens, UniProt Q86WV6, G230A/H232R/R293Q/R71H); assay: Role of STING palmitoylation in THP1 cells; assay type: cell-based
T2 construct: endogenous in cells; host or cells: THP1 cells

[20] = 60 mg/kg po bid x 10 (first day 1 dose), n=5
[21] = oral, once daily or twice daily up to 60 mgkg/day

T1 sequence (Q86WV6 whole entry): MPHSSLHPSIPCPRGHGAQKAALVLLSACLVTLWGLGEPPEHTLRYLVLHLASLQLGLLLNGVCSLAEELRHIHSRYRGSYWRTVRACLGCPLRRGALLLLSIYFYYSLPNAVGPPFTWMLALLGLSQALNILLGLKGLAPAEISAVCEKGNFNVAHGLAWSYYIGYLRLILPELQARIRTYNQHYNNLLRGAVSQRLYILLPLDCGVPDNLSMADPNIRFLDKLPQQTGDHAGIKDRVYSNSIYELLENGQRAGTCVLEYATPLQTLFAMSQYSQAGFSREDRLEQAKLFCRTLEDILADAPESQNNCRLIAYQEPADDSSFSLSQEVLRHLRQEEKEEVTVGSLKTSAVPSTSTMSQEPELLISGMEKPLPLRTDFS
T2 sequence (Q86WV6 whole entry R71H/G230A/H232R/R293Q): as the sequence (Q86WV6 whole entry) above, with R71H, G230A, H232R, R293Q counted along it
Chain of STING-HAQ polymorphic variant (Q86WV6 whole entry R71H/G230A/H232R/R293Q): as the sequence (Q86WV6 whole entry) above, with R71H, G230A, H232R, R293Q counted along it

## CCCCCCCCCCOc1ccc(C(=O)Oc2ccc(CSP3(=O)OC[C@H]4O[C@@H](n5cnc6c(N)ncnc65)[C@H](F)[C@@H]4OP(=O)(O)OC[C@H]4O[C@@H](n5ccc(=O)[nH]c5=O)[C@H](F)[C@@H]4O3)cc2)cc1.N (stereo partly shown) [Cmd 1]
[1]; [20]
  NTR: 0
  NTRm: 0
  TR: 0
[1]; 60 mg/kg po bid x 10 (first day 1 dose), nadir day (11)
  BW Nadir: −3.6%
[1]; 60 mg/kg po qd x 10, n=5
  NTR: 0
  NTRm: 0
  TR: 0
[1]; [21]
  adverse clinical signs: no adverse clinical signs
  tolerability: well tolerated
[2]; 10 mg/kg ip days 5, 7, 9, 11, 14, 18, compared with control
  tumor growth / tumor volume: significant decline in tumor volume; also recorded: significant decrease in tumor growth
[2]; 4T1 breast cancer model, compared with vehicle (FIG. 75)
  tumor growth: considerable tumor growth inhibition
[2]; intraperitoneal administration, compared with vehicle (FIG. 82)
  tumor growth (luminescence images): considerable tumor growth inhibition
[3]
  induction of CD8+ T cells, CD4+ T cells, and MDSCs: increase in CD8+ T cells, CD4+ T cells, and MDSCs
[4]; combination therapy with cyclophosphamide
  survival rate: significantly improve the survival rate
[4]; in combination with cyclophosphamide
  tumor-free survival: results in tumor-free survival
[4]; monotherapy
  survival rate: significantly improve the survival rate
[4]; monotherapy, compared with vehicle
  tumor growth: potently inhibits lymphoma tumor growth; also recorded: considerable tumor growth inhibition; also recorded: inhibit mouse A20 B cell lymphoma tumor cells
[4]; tumor tissue, vs vehicle
  migration of CD8 T cells into the tumor site (immunohistochemistry): induces migration of CD8 T into the tumor site
  migration of NK cells into the tumor site (anti-granzyme B immunohistochemistry): induces migration of NK cells into the tumor site
  migration of macrophages into the tumor site (anti-F4/80 immunohistochemistry): induces migration of macrophages into the tumor site
[4]; tumor-free mice after Cmd 1 + cyclophosphamide treatment
  tumor growth upon re-challenge with tumor cells: no tumor growth
[4]; tumor-free mice after Cmd 1 treatment
  tumor growth upon re-challenge with tumor cells: no tumor growth
[5]
  apoptosis: Causes Cell Death by Apoptosis
[6]
  selectivity of apoptosis induction THP1 vs. PBMCs: selective induction of apoptosis
[7]
  induction of ISG and PRR-associated genes, THP1 compared to PBMCs: selective and enhanced induction of ISG and PRR-associated genes
[8]; high-content image-based approach (FIG. 49)
  anti-tumor activity: anti-tumor activity
[8]; tumor cells and THP1 cells
  STING dependence of tumor cell growth inhibition: STING dependent
[8]; tumor cells and THP1 cells, high-content image-based approach
  tumor cell growth: inhibits tumor cell growth
[9]
  STING binding and type 1 IFN signaling: binds to STING to activate type 1 IFN signaling
[10]; mouse macrophages (FIG. 36B)
  activity relative to natural STING ligand 3′,3′-cGAMP: more active
[10]; mouse macrophages, similar to 2′,3′-cGAMP
  activation of type 1 IFN signaling: highly active
[11]
  type III interferon (IL-29) production: induce type III interferon (IL-29) production
[12]
  activation of STING-HAQ variant: capable of activating
[13]
  dependence of STING activation on residues R238 and Y167: critical
[14]
  apoptosis: induces apoptosis
[15]
  apoptosis: causes apoptosis
[16]
  STING dependence of induction of cell death: STING-mediated
[17]
  BAX/BCL2 ratio: higher BAX/BCL2 ratio
[18]
  IRF-type I and type III IFN response: strongly activates
[19]
  involvement of STING palmitoylation in activation of NF-κB and IRF-type I interferon response: palmitoylation of STING is involved
